# Reference: US9249151B2, “Bis-amido pyridines” (Boehringer Ingelheim International GmbH, priority 2013, dated 2016)
# Target: BIR3 domain of human cIAP1 (amino acids 256 to 363; cIAP1 BIR3) (Homo sapiens (Human), UniProt Q13490)
# Assay: cIAP1 BIR3 binding assay (DELFIA)
# Settings: not given
# Procedure: XIAP BIR3 and cIAP1 BIR3 Binding Assays (DELFIA)
# Peptide […]-Lys(Biotin), representing the N-terminus of mature human SMAC (SMAC peptide), was used as interaction partner in the protein-peptide interaction assay.
# BIR3 domains (10 nM) were incubated with SMAC peptide (10 nM) in assay buffer (50 mM Tris, 120 mM NaCl, 0.1% BSA, 1 mM DTT, 0.05% TritonX100) for one hour at room temperature in the presence of inhibitory compounds. The assay mixture was transferred to a streptavidin coated plate and incubated for one hour at room temperature to allow binding of the biotinylated peptide and associated BIR3 domains to the plate. After several washing steps Eu labeled anti-GST antibody (e.g. Perkin Elmer DELFIA Eu-N1-antiGST AD0250) was added to detect BIR3 domain-SMAC peptide interactions m according to Perkin Elmer's instructions. […] Time resolved Europium fluoresecence was measured in a Wallac Victor using Standard assay settings.
# DELFIA assay results were plotted against compound concentrations and Software GraphPad Prizm was used to calculate half maximal inhibitory concentrations (IC50 values).
# Sequence of BIR3 domain of human cIAP1 (amino acids 256 to 363; cIAP1 BIR3) (Q13490 256-363): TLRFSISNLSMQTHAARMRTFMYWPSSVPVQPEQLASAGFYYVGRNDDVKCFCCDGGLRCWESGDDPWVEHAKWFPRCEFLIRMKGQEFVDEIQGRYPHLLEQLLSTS
row,Structure (SMILES),IC50
1,"CNC(C)C(=O)Nc1cc(-c2ncnc3cccc(C)c23)cc(NC(=O)c2ccc(Cl)cn2)n1 (stereo not drawn) [Example 9, 5-chloro-N-{6-[2-(methylamino)propanamido]-4-(5-methylquinazolin-4-yl)pyridin-2-yl}pyridine-2-carboxamide]",1 nM
2,"CNC(C)C(=O)Nc1cc(-c2c(OC)ccc3cc(C#N)ccc23)cc(NC(=O)c2ccc(Cl)cn2)n1 (stereo not drawn) [Example 25, 5-chloro-N-[4-(6-cyano-2-methoxynaphihalen-1-yl)-6-[2-(methylamino)propanamido]-pyridin-2-yl]pyridine-2-carboxamide]",47 nM

# Same assay, conditions: BIR3 domain 10 nM, SMAC peptide 10 nM; values represent the (S)-isomers; * = racemic compound; read-out: cIAP1 BIR-3 IC50
row,Structure (SMILES),IC50
1,"CNC(C)C(=O)Nc1cc(-c2ccnc3cc(F)cc(F)c23)cc(NC(=O)c2ccc(Cl)cn2)n1 (stereo not drawn) [Example 23, 5-chloro-N-[4-(5,7-difluoroquinolin-4-yl)-6-[2-(methylamino)propanamido]-pyridin-2-yl]pyridine-2-carboxamide]",8 nM
2,"CNC(C)C(=O)Nc1cc(-c2c(C)ccc3ncccc23)cc(NC(=O)c2ccc(F)cn2)n1 (stereo not drawn) [Example 32, 5-fluoro-N-{6-[2-(methylamino)propanamido]-4-(6-methylquinolin-5-yl)pyridin-2-yl}pyridine-2-carboxamide]",53 nM
3,"Cc1cccc2ccn(-c3cc(NC(=O)c4ccc(Cl)cn4)nc(NC(=O)C(C)N)c3)c12 (stereo not drawn) [Example 55, N-[6-(2-aminopropanamido)-4-(7-methyl-1H-indol-1-yl)pyridin-2-yl]-5-chloropyridine-2-carboxamide]",45 nM
4,"CNC(C)C(=O)Nc1cc(-c2c(C)nc3ccccn23)cc(NC(=O)c2ccc(Cl)cn2)n1 (stereo not drawn) [Example 6, 5-chloro-N-{6-[2-(methylamino)propanamido]-4-{2-methylimidazo[1,2-a]pyridin-3-yl}pyridin-2-yl}pyridine-2-carboxamide]",10 nM
5,"CNC(C)C(=O)Nc1cc(-c2c(C)ccc3ncccc23)cc(NC(=O)c2ccccn2)n1 (stereo not drawn) [Example 39, N-{6-[2-(methylamino)propanamido]-4-(6-methylquinolin-5-yl)pyridin-2-yl}pyridine-2-carboxamide]",553 nM
6,"CNC(C)C(=O)Nc1cc(-c2c(C)ccc3ncccc23)cc(NC(=O)c2ccn(C)n2)n1 (stereo not drawn) [Example 41, 1-methyl-N-{6-[2-(methylamino)propanamido]-4-(6-methylquinolin-5-yl)pyridin-2-yl}-1H-pyrazole-3-carboxamide]",703 nM
7,"CNC(C)C(=O)Nc1cc(-c2c(C)ccc3ncccc23)cc(NC(=O)c2cc3ccccc3cn2)n1 (stereo not drawn) [Example 35, N-{6-[2-(methylamino)propanamido]-4-(6-methylquinolin-5-yl)pyridin-2-yl}isoquinoline-3-carboxamide]",132 nM
8,"CNC(C)C(=O)Nc1cc(-c2c(Cl)c(C)nc3cc(Cl)cc(Cl)c23)cc(NC(=O)c2ccc(Cl)cn2)n1 (stereo not drawn) [Example 27, 5-chloro-N-{6-[2-(methylamino)propanamido]-4-(3,5,7-trichloro-2-methylquinolin-4-yl)pyridin-2-yl}pyridine-2-carboxamide]",18 nM
9,"CNC(C)C(=O)Nc1cc(-c2nc(OC)nc3c(C)nn(C)c23)cc(NC(=O)c2ccc(Cl)cn2)n1 (stereo not drawn) [Example 63, 5-chloro-N-(4-{5-methoxy-1,3-dimethyl-1H-pyrazolo[4,3-d]pyrimidin-7-yl}-6-[2-(methylamino)-propanamido]pyridin-2-yl)pyridine-2-carboxamide]",55 nM
10,"CNC(C)C(=O)Nc1cc(-c2c(C)ncnc2C)cc(NC(=O)c2ccc(Cl)cn2)n1 (stereo not drawn) [Example 5, 5-chloro-N-[4-(4,6-dimethylpyrimidin-5-yl)-6-[2-(methylamino)propanamido]-pyridin-2-yl]pyridine-2-carboxamide]",5 nM
11,"CNC(C)C(=O)Nc1cc(-c2c(C)ccc3ncccc23)cc(NC(=O)c2cc(-c3ccccc3)on2)n1 (stereo not drawn) [Example 46, N-{6-[2-(methylamino)propanamido]-4-(6-methylquinolin-5-yl)pyridin-2-yl}-5-phenyl-1,2-oxazole-3-carboxamide]",6330 nM
12,"CNC(C)C(=O)Nc1cc(-c2c(C)ccc3ncccc23)cc(NC(=O)c2cc3c(cn2)COC3)n1 (stereo not drawn) [Example 28, N-{6-[2-(methylamino)propanamido]-4-(6-methylquinolin-5-yl)pyridin-2-yl}-1H,3H-furo[3,4-c]pyridine-6-carboxamide]",31 nM
13,"CNC(C)C(=O)Nc1cc(-c2cccc3nc(C)c(C)n23)cc(NC(=O)Cc2ccccc2)n1 (stereo not drawn) [Example 49, N-(4-{2,3-dimethylimidazo[1,2-a]pyridin-5-yl}-6-(2-phenylacetamido)pyridin-2-yl)-2-(methylamino)propanamide]",5350 nM
14,"CNC(C)C(=O)Nc1cc(-c2c(C)ccc3ncccc23)cc(NC(=O)c2cc(Cl)ccn2)n1 (stereo not drawn) [Example 42, 4-chloro-N-{6-[2-(methylamino)propanamido]-4-(6-methylquinolin-5-yl)pyridin-2-yl}pyridine-2-carboxamide]",1190 nM
15,"CNC(C)C(=O)Nc1cc(-c2ccncc2C#N)cc(NC(=O)c2ccc(Cl)cn2)n1 (stereo not drawn) [Example 4, 5-chloro-N-[4-(3-cyanopyridin-4-yl)-6-[2-(methylamino)propanamido]-pyridin-2-yl]pyridine-2-carboxamide]",28 nM
16,"CNC(C)C(=O)Nc1cc(-c2c(C)noc2C)cc(NC(=O)c2ccc(Cl)cn2)n1 (stereo not drawn) [Example 3, 5-chloro-N-[4-(dimethyl-1,2-oxazol-4-yl)-6-[2-(methylamino)propanamido]-pyridin-2-yl]pyridine-2-carboxamide]",3 nM
17,"CNC(C)C(=O)Nc1cc(-c2c(C)ccc3ncccc23)cc(NC(=O)c2ccc3cnccc3c2)n1 (stereo not drawn) [Example 44, N-{6-[2-(methylamino)propanamido]-4-(6-methylquinolin-5-yl)pyridin-2-yl}isoquinoline-6-carboxamide]",3190 nM

# Second part, the compound after the results:
row,IC50,Structure (SMILES)
1,1 nM,"CNC(C)C(=O)Nc1cc(-c2c(OC)ccc3nccc(C)c23)cc(NC(=O)c2ccc(Cl)cn2)n1 (stereo not drawn) [Example 24, 5-chloro-N-[4-(6-methoxy-4-methylquinolin-5-yl)-6-[2-(methylamino)propanamido]-pyridin-2-yl]pyridine-2-carboxamide]"
2,1 nM,"CNC(C)C(=O)Nc1cc(-c2cncc3ccn(C)c23)cc(NC(=O)c2ccc(Cl)cn2)n1 (stereo not drawn) [Example 52, 5-chloro-N-(4-{1-methyl-1H-pyrrolo[3,2-c]pyridin-7-yl}-6-[2-(methylamino)propanamido]pyridin-2-yl)pyridine-2-carboxamide]"
3,1 nM,"CNC(C)C(=O)Nc1cc(-c2nccc3cccc(C)c23)cc(NC(=O)c2ccc(Cl)cn2)n1 (stereo not drawn) [Example 8, 5-chloro-N-{6-[2-(methylamino)propanamido]-4-(8-methylisoquinolin-1-yl)pyridin-2-yl}pyridine-2-carboxamide]"
4,2 nM,"CNC(C)C(=O)Nc1cc(-c2ncnc3c(C)nn(C)c23)cc(NC(=O)c2cc3c(cn2)COC3)n1 (stereo not drawn) [Example 2, N-(4-{1,3-dimethyl-1H-pyrazolo[4,3-d]pyrimidin-7-yl}-6-[2-(methylamino)propanamido]-pyridin-2-yl)-1H,3H-furo[3,4-c]pyridine-6-carboxamide]"
5,1 nM,"CNC(C)C(=O)Nc1cc(-c2ncnc3oc(C)c(C)c23)cc(NC(=O)c2ccc(Cl)cn2)n1 (stereo not drawn) [Example 15, 5-chloro-N-(4-{5,6-dimethylfuro[2,3-d]pyrimidin-4-yl}-6-[2-(methylamino)propanamido]-pyridin-2-yl)pyridine-2-carboxamide]"
6,2 nM,"CNC(C)C(=O)Nc1cc(-c2cccc3c2c(C)nn3C)cc(NC(=O)c2ccc(Cl)cn2)n1 (stereo not drawn) [Example 13, 5-chloro-N-[4-(1,3-dimethyl-1H-indazol-4-yl)-6-[2-(methylamino)propanamido]-pyridin-2-yl]pyridine-2-carboxamide]"
7,1 nM,"CNC(C)C(=O)Nc1cc(-c2ncnc3c(C)nn(C)c23)cc(NC(=O)c2ccc(Cl)cn2)n1 (stereo not drawn) [Example 1, 5-chloro-N-(4-{1,3-dimethyl-1H-pyrazolo[4,3-d]pyrimidin-7-yl}-6-[2-(methylamino)propanamido]pyridin-2-yl)pyridine-2-carboxamide]"
8,3 nM,"CNC(C)C(=O)Nc1cc(-c2cccc3nn(C)c(C)c23)cc(NC(=O)c2ccc(Cl)cn2)n1 (stereo not drawn) [Example 12, 5-chloro-N-[4-(2,3-dimethyl-2H-indazol-4-yl)-6-[2-(methylamino)propanamido]-pyridin-2-yl]pyridine-2-carboxamide]"
9,1 nM,"CNC(C)C(=O)Nc1cc(-c2nc(C)nc3c(C)c(C)n(C)c23)cc(NC(=O)c2ccc(Cl)cn2)n1 (stereo not drawn) [Example 59, 5-chloro-N-{6-[2-(methylamino)propanamido]-4-{tetramethyl-5H-pyrrolo[3,2-d]pyrimidin-4-yl}pyridin-2-yl}pyridine-2-carboxamide]"
10,1 nM,"CNC(C)C(=O)Nc1cc(-c2cccc3nc(C)c(C)n23)cc(NC(=O)c2cc3c(cn2)COC3)n1 (stereo not drawn) [Example 48, N-(4-{2,3-dimethylimidazo[1,2-a]pyridin-5-yl}-6-[2-(methylamino)propanamido]pyridin-2-yl)-1H,3H-furo[3,4-c]pyridine-6-carboxamide]"
11,1 nM,"CNC(C)C(=O)Nc1cc(-c2c(C)nc(C)c3c(=O)n(C)n(C)c23)cc(NC(=O)c2ccc(Cl)cn2)n1 (stereo not drawn) [Example 26, 5-chloro-N-{6-[2-(methylamino)propanamido]-4-{1,2,4,6-tetramethyl-3-oxo-1H,2H,3H-pyrazolo[4,3-c]pyridin-7-yl}pyridin-2-yl}pyridine-2-carboxamide]"
